Data reported in patent publication US20110046191A1, “COMBINATION OF A MUSCARINIC RECEPTOR ANTAGONIST AND A BETA-2-ADRENOCEPTOR AGONIST” (ARGENTA DISCOVERY LTD., priority 2007, published 2011).
Where two headings read alike, the source gives them in different places. Values belong to the compound of their own block, whether it stands above or below them.

Tests used:
[1] = system: isolated guinea-pig tracheal rings precontracted with methacholine; assay: Isolated tracheal rings from guinea-pig preconstricted with methacholine; type: cell-based; conditions: for inhibition at 0.001 µM: Cavia porcellus, read-out: % inhibition of 1 μM Methacholine induced tone; for % inhibition of 1 μM Methacholine induced tone: Formoterol 1 nM, Compound A or B 10 nM
Method: Evaluation of Compound Activity on Isolated Tracheal Rings from Guinea-Pig Preconstricted with Methacholine. […] Male albino Dunkin Hartley guinea-pigs (300-350 g) were killed by cervical dislocation and the trachea excised. Adherent connective tissue was removed and the trachea cut into ring segments (2-3 mm wide). These were suspended in 10 mL organ baths containing a modified Krebs solution composition (mM): NaCl 117.56, KCl 5.36, NaH2PO4 1.15, MgSO4 1.18, glucose 11.10, NaHCO3 25.00 and CaCl2 2.55. […] The tracheal rings were suspended between two stainless steel hooks, one attached to an isometric force transducer and the other to a stationary support in the organ bath. Changes in isometric force were recorded. Acetyl-β-methylcholine chloride (Methacholine), Indomethacin, Corticosterone-21-acetate, Phentolamine hydrochloride, Ascorbic acid, CGP20712A methanesulphate were obtained from the Sigma Chemical Company. […] At the beginning of each experiment a force of 1.0 g·wt. was applied to the tissues and this was reinstated over a 30 min equilibration period until it remained steady. […] Tissues were washed by exchanging the bathing Krebs solution three times. […] Data were collected using the ADInstruments Chart5 for windows software, the tension generated was measured before addition of methacholine and after its response had reached plateau. […] All responses were expressed as percentage inhibition of the methacholine-induced contraction. The results are depicted in FIG. 6 and Table 2, wherein compound A is (MA2). […] Tissues were washed by exchanging the bathing Krebs solution three times. […] Data were collected using the ADInstruments Chart5 for windows software, the tension generated was measured before addition of methacholine and after its response had reached plateau. […] All responses were expressed as percentage inhibition of the methacholine-induced contraction. The results are depicted in FIG. 7 and Table 3, wherein compound B is (MA11).

[2] = target: T1, human muscarinic receptors (M3) (Homo sapiens, UniProt P20309); assay: Muscarinic Receptor Radioligand Binding Assay ([3H]-NMS); conditions: membranes expressing human M3
T1 construct: purchased
T1 sequence (P20309 whole entry): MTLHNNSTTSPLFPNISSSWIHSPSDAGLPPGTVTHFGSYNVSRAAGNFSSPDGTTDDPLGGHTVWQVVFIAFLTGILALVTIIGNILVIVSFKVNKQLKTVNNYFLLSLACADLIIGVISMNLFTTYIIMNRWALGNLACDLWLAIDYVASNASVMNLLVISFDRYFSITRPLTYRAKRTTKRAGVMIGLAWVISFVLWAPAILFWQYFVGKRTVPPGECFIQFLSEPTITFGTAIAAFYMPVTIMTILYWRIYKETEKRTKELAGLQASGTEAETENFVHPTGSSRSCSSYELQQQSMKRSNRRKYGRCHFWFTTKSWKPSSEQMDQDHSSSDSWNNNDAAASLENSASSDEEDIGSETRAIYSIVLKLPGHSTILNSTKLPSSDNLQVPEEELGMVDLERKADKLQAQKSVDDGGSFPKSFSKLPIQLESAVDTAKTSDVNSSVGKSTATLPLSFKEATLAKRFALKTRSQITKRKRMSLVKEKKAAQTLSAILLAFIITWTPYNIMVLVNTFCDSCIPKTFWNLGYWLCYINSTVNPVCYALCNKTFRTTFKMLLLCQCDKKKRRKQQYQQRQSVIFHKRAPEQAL
Method: The inhibitory effects of compounds of the muscarinic antagonists were determined by a Muscarinic Receptor Radioligand Binding Assay.
Radioligand binding studies utilising [^3H]-N-methyl scopolamine ([^3H]-NMS) and commercially available cell membranes expressing the human muscarinic receptors (M2 or M3) were used to assess the affinity of muscarinic antagonists for M2 and M3 receptors. Membranes in TRIS buffer were incubated in 96-well plates with [^3H]-NMS and M3 antagonist at various concentrations for 3 hours. Membranes and bound radioligand were then harvested by filtration and allowed to dry overnight. Scintillation fluid was then added and the bound radioligand counted using a Canberra Packard Topcount scintillation counter

[3] = Gravimetric vapour sorption (GVS); type: physicochemical; conditions: at 80% RH, ambient temperature
Method: GVS profiles were measured using a Dynamic Vapour Sorption DVS-1 instrument. The solid sample ca. 1-5 mg was placed into a glass vessel and the weight of the sample was recorded during a dual cycle step method (40 to 90 to 0 to 90 to 0% relative humidity (RH), in steps of 10% RH). GVS profiles were recorded at ambient temperature.

[4] = system: Methacholine-induced bronchoconstriction in the guinea pig; assay: Lung function in anaesthetised guinea pigs: methacholine-induced bronchoconstriction; type: in vivo; conditions: after 5 μg/kg methacholine i.v.
Method: Evaluation of Lung Function in Anaesthetised Guinea Pigs.
Male Dunkin-Hartley guinea pigs (300-600 g) were weighed and dosed with vehicle (0.05M phosphate, 0.1% Tween 80, 0.6% saline, pH 6) or compound via the intratracheal route under recoverable gaseous anaesthesia (5% halothane in oxygen). Animals were dosed with compound or vehicle two hours prior to the administration of methacholine. Guinea pigs were anaesthetised with pentobarbitone (1 mL/kg of 60 mg/mL solution i.p.) approximately 30 minutes prior to the first bronchoconstrictor administration. The trachea was cannulated and the animal ventilated using a constant volume respiratory pump (Harvard Rodent Ventilator model 683) at a rate of 60 breath/min and a tidal volume of 5 mL/kg. A jugular vein was cannulated for the administration of methacholine or maintenance anaesthetic (0.1 mL of pentobarbitone solution, 60 mg/mL, as required).
The animals were transferred to a Flexivent System (SCIREQ, Montreal, Canada) in order to measure airway resistance. The animals were ventilated (quasi-sinusoidal ventilation pattern) at 60 breaths/min at a tidal volume of 5 mL/kg. A positive end expiratory pressure of 2-3 cm H2O was applied. Respiratory resistance was measured using the Flexivent “snapshot” facility (1 second duration, 1 Hz frequency). Once a stable baseline resistance value had been obtained the animals were given methacholine in ascending doses (0.5, 1, 2, 3 and 5 μg/kg, i.v) at approximately 4-minute intervals via the jugular catheter. After each administration of bronchoconstrictor the peak resistance value was recorded. Guinea pigs were euthanised with approximately 1.0 mL pentobarbitone sodium (Euthatal) intravenously after the completion of the lung function measurements.
Percentage bronchoprotection produced by a compound was calculated at each dose of brochoconstrictor as follows:
Where % change Rveh is the mean of the maximum percentage change in airway resistance in the vehicle treated group. The results reported were measured after 5 μg/kg methacholine and were expressed as percentage bronchoprotection (mean±s.e.mean).
Guinea pigs were dosed with vehicle, 3 and 27 μg/kg compound (BA1), 0.2 μg/kg compound (MA2) (Crystalline Form A) or a combination of 3 μg/kg Compound (BA1) and 0.2 μg/kg Compound (MA2) via the intratracheal route. Administration of increasing intravenous doses of methacholine (0.5, 1, 2, 3 and 5 μg/kg) evoked dose-related bronchoconstriction in the vehicle treated animals ranging from 13±2.6% at 0.5 μg/kg to 2530±280% at 5 μg/kg two hours after vehicle administration (n=9).
[…] Administration of increasing intravenous doses of methacholine (0.5, 1, 2, 3 and 5 μg/kg) evoked dose-related bronchoconstriction in the vehicle treated animals ranging from 14±2.6% at 0.5 μg/kg to 2240±269% at 5 μg/kg two hours after vehicle administration (n=10).

[5] = MA2 0.2 μg/kg intratracheal, 2 hours prior to methacholine
[6] = MA11 at 0.2 μg/kg intratracheal

Structure (SMILES): COc1ccc(CC(C)NCC(O)c2ccc(O)c(NC=O)c2)cc1 (stereo not drawn) [Formoterol, N-[2-hydroxy-5-[(1)-1-hydroxy-2-[[(1)-2-(4-methoxyphenyl)-1-methylethyl]amino]ethyl]phenyl]-formamide, reference compound]
inhibition at 0.001 µM ([1]; 10 min): 21%
inhibition at 0.001 µM ([1]; 20 min): 37%
inhibition at 0.001 µM ([1]; 0.5 h): 41%
inhibition at 0.001 µM ([1]; 40 min): 42%
inhibition at 0.001 µM ([1]; 50 min): 44%

Structure (SMILES): C[N+](C)(CCCOc1ccc(Cl)c(Cl)c1)Cc1cnc([C@](O)(c2ccccc2)C2CCCCC2)o1 [MA4, [2-((R)-Cyclohexyl-hydroxy-phenyl-methyl)-oxazol-5-ylmethyl]-[3-(3,4-dichloro-phenoxy)-propyl]-dimethyl-ammonium bromide]
Ki [2]: 0.9 nM

Structure (SMILES): C[N+](C)(CCOCc1ccc(Cl)c(Cl)c1)Cc1cnc([C@](O)(c2ccccc2)C2CCCCC2)o1 [MA5, [2-((R)-Cyclohexyl-hydroxy-phenyl-methyl)-oxazol-5-ylmethyl]-[2-(3,4-dichloro-benzyloxy)-ethyl]-dimethyl-ammonium bromide]
Ki [2]: 2.1 nM

Structure (SMILES): C[N+](C)(CCCOc1ccccc1)Cc1cnc([C@](O)(c2ccccc2)C2CCCCC2)o1 [MA7 Form 1, [2-((R)-Cyclohexyl-hydroxy-phenyl-methyl)-oxazol-5-ylmethyl]-dimethyl-(3-phenoxy-propyl)-ammonium hemi-naphthalene-1,5-disulfonate]
GVS weight increase [3]: 3.1 % w/w

Structure (SMILES): C[N+](C)(CCOCc1ccc(Cl)cc1)Cc1cnc([C@](O)(c2ccccc2)C2CCCCC2)o1 [MA11, [2-(4-chloro-benzyloxy)-ethyl]-[2-((R)-cyclohexyl-hydroxy-phenyl-methyl)-oxazol-5-ylmethyl]-dimethyl-ammonium hemi-naphthalene-1,5-disulfonate]
increase in resistance [4, 6]: 1880±272%
inhibition of methacholine-induced bronchoconstriction [4, 6]: 16%
% inhibition of 1 μM Methacholine induced tone ([1]; 10 min): 11%
% inhibition of 1 μM Methacholine induced tone ([1]; 20 min): 29%
% inhibition of 1 μM Methacholine induced tone ([1]; 30 min): 49%
% inhibition of 1 μM Methacholine induced tone ([1]; 40 min): 67%
% inhibition of 1 μM Methacholine induced tone ([1]; 50 min): 84%

Continued, in another order:

Ki [2]: 9.4 nM
Structure (SMILES): C[N+](C)(CCCOc1ccccc1)Cc1cnc([C@@](O)(c2ccccc2)C2CCCCC2)o1 [MA1, [2-((S)-Cyclohexyl-hydroxy-phenyl-methyl)-oxazol-5-ylmethyl]-dimethyl-(3-phenoxy-propyl)-ammonium bromide]

GVS weight increase [3]: 0.8 % w/w
Structure (SMILES): C[N+](C)(CCCOc1ccccc1)Cc1cnc([C@](O)(c2ccccc2)C2CCCCC2)o1.[Br-] [MA2 Crystalline Form A, [2-((R)-Cyclohexyl-hydroxy-phenyl-methyl)-oxazol-5-ylmethyl]-dimethyl-(3-phenoxy-propyl)-ammonium bromide]

Ki [2]: 0.2 nM
Structure (SMILES): C[N+](C)(CCCOc1ccccc1)Cc1cnc([C@](O)(c2ccccc2)C2CCCCC2)o1.[Br-] [MA2, [2-((R)-Cyclohexyl-hydroxy-phenyl-methyl)-oxazol-5-ylmethyl]-dimethyl-(3-phenoxy-propyl)-ammonium bromide]
increase in resistance [4, 5]: 2210±268%
inhibition of methacholine-induced bronchoconstriction [4, 5]: 13%
% inhibition of 1 μM Methacholine induced tone ([1]; 10 min): 23%
% inhibition of 1 μM Methacholine induced tone ([1]; 20 min): 62%
% inhibition of 1 μM Methacholine induced tone ([1]; 30 min): 94%
% inhibition of 1 μM Methacholine induced tone ([1]; 40 min): 104%
% inhibition of 1 μM Methacholine induced tone ([1]; 50 min): 106%

Ki [2]: 0.6 nM
Structure (SMILES): C[N+](C)(CCOCCc1ccccc1)Cc1cnc([C@](O)(c2ccccc2)C2CCCCC2)o1 [MA3, [2-((R)-Cyclohexyl-hydroxy-phenyl-methyl)-oxazol-5-ylmethyl]-dimethyl-(2-phenethyloxy-ethyl)-ammonium bromide]

Ki [2]: 0.6 nM
Structure (SMILES): C[N+](C)(CCOCc1ccc(Cl)cc1)Cc1cnc([C@](O)(c2ccccc2)C2CCCCC2)o1 [MA6, [2-(4-chloro-benzyloxy)-ethyl]-[2-((R)-cyclohexyl-hydroxy-phenyl-methyl)-oxazol-5-ylmethyl]-dimethyl-ammonium bromide]
